Active and inactive are the calls of the source. How the calls were made is not given here.
System: CCRIS mutagenicity, Ames/micronucleus/aberration tests
Assay: CCRIS mutagenicity studies
[1] = Test System: AMES SALMONELLA TYPHIMURIUM, Strain/Indicator: TA98, Metabolic Activation: NONE, Method: STANDARD PLATE
[2] = Test System: AMES SALMONELLA TYPHIMURIUM, Strain/Indicator: TA100, Metabolic Activation: NONE, Method: STANDARD PLATE
[3] = Test System: AMES SALMONELLA TYPHIMURIUM, Strain/Indicator: TA1538, Metabolic Activation: NONE, Method: STANDARD PLATE
[4] = Test System: AMES SALMONELLA TYPHIMURIUM, Strain/Indicator: TA1538, Metabolic Activation: RAT, LIVER, S-9, AROCLOR 1254, Method: STANDARD PLATE

**Q.** How did the mutagenic call (Test System: AMES SALMONELLA TYPHIMURIUM, Strain/Indicator: TA98(1,8-DNP), Metabolic Activation: NONE, Method: PREINCUBATION) turn out when `Nc1ncnc2c1ncn2-c1ccc([N+](=O)[O-])cc1[N+](=O)[O-]` was run?
**A.** inactive; negative

**Q.** And the mutagenic call (Test System: AMES SALMONELLA TYPHIMURIUM, Strain/Indicator: TA98(1,8-DNP), Metabolic Activation: RAT, LIVER, S-9, PCB, Method: PREINCUBATION)?
**A.** inactive; negative

**Q.** What about the mutagenic call (Test System: AMES SALMONELLA TYPHIMURIUM, Strain/Indicator: TA98(NR), Metabolic Activation: NONE, Method: PREINCUBATION) of the same compound?
**A.** inactive; negative

**Q.** What about the mutagenic call (Test System: AMES SALMONELLA TYPHIMURIUM, Strain/Indicator: TA98(NR), Metabolic Activation: RAT, LIVER, S-9, PCB, Method: PREINCUBATION) of the same compound?
**A.** inactive; negative

**Q.** And the mutagenic call (Test System: AMES SALMONELLA TYPHIMURIUM, Strain/Indicator: TA98, Metabolic Activation: NONE, Method: PREINCUBATION)?
**A.** inactive; negative

**Q.** What about the mutagenic call (Test System: AMES SALMONELLA TYPHIMURIUM, Strain/Indicator: TA98, Metabolic Activation: RAT, LIVER, S-9, PCB, Method: PREINCUBATION) of the same compound?
**A.** inactive; negative

**Q.** And the mutagenic call (Test System: AMES SALMONELLA TYPHIMURIUM, Strain/Indicator: TA100(1,8-DNP), Metabolic Activation: RAT, LIVER, S-9, PCB, Method: PREINCUBATION)?
**A.** inactive; negative

**Q.** And the mutagenic call (Test System: AMES SALMONELLA TYPHIMURIUM, Strain/Indicator: TA100(NR), Metabolic Activation: NONE, Method: PREINCUBATION)?
**A.** inactive; negative

**Q.** What about the mutagenic call (Test System: AMES SALMONELLA TYPHIMURIUM, Strain/Indicator: TA100(NR), Metabolic Activation: RAT, LIVER, S-9, PCB, Method: PREINCUBATION) of the same compound?
**A.** inactive; negative

**Q.** What about the mutagenic call (Test System: AMES SALMONELLA TYPHIMURIUM, Strain/Indicator: TA100, Metabolic Activation: NONE, Method: PREINCUBATION) of the same compound?
**A.** active; positive

**Q.** What about the mutagenic call (Test System: AMES SALMONELLA TYPHIMURIUM, Strain/Indicator: YG1020, Metabolic Activation: RAT, LIVER, S-9, PCB, Method: PREINCUBATION) of the same compound?
**A.** inactive; negative

**Q.** What about the mutagenic call (Test System: AMES SALMONELLA TYPHIMURIUM, Strain/Indicator: YG1021, Metabolic Activation: RAT, LIVER, S-9, PCB, Method: PREINCUBATION) of the same compound?
**A.** inactive; negative

**Q.** What about the mutagenic call (Test System: AMES SALMONELLA TYPHIMURIUM, Strain/Indicator: YG1024, Metabolic Activation: NONE, Method: PREINCUBATION) of the same compound?
**A.** active; positive

**Q.** What about the mutagenic call (Test System: AMES SALMONELLA TYPHIMURIUM, Strain/Indicator: YG1024, Metabolic Activation: RAT, LIVER, S-9, PCB, Method: PREINCUBATION) of the same compound?
**A.** active; positive

**Q.** What about the mutagenic call (Test System: AMES SALMONELLA TYPHIMURIUM, Strain/Indicator: YG1025, Metabolic Activation: NONE, Method: PREINCUBATION) of the same compound?
**A.** inactive; negative

**Q.** What about the mutagenic call (Test System: AMES SALMONELLA TYPHIMURIUM, Strain/Indicator: YG1025, Metabolic Activation: RAT, LIVER, S-9, PCB, Method: PREINCUBATION) of the same compound?
**A.** inactive; negative

**Q.** What about the mutagenic call (Test System: AMES SALMONELLA TYPHIMURIUM, Strain/Indicator: YG1026, Metabolic Activation: NONE, Method: PREINCUBATION) of the same compound?
**A.** inactive; negative

**Q.** What about the mutagenic call (Test System: AMES SALMONELLA TYPHIMURIUM, Strain/Indicator: YG1026, Metabolic Activation: RAT, LIVER, S-9, PCB, Method: PREINCUBATION) of the same compound?
**A.** inactive; negative

**Q.** And the mutagenic call (Test System: AMES SALMONELLA TYPHIMURIUM, Strain/Indicator: YG1029, Metabolic Activation: NONE, Method: PREINCUBATION)?
**A.** active; positive

**Q.** And the mutagenic call (Test System: AMES SALMONELLA TYPHIMURIUM, Strain/Indicator: YG1029, Metabolic Activation: RAT, LIVER, S-9, PCB, Method: PREINCUBATION)?
**A.** active; positive

**Q.** With `CC(=O)OCc1c2ccccc2cc2ccc3ccccc3c12` as the compound, how does the mutagenic call [1] read?
**A.** active; positive

**Q.** And the mutagenic call [2]?
**A.** active; positive

**Q.** How did the mutagenic call (Test System: AMES SALMONELLA TYPHIMURIUM, Strain/Indicator: TA100, Metabolic Activation: RAT, LIVER, S-9, PCB, Method: PREINCUBATION) turn out when `[N-]=[N+]=NC[C@H](O)c1ccccc1` was run?
**A.** active; positive

**Q.** Which results are given for `CC(=O)OCc1c2ccccc2c2ccc3cccc4ccc1c2c43`?
**A.** mutagenic call [1]: active; positive; mutagenic call [2]: active; positive

**Q.** For `CCN(CC)c1ccc(N=Nc2ccc(N=Nc3c(S(=O)(=O)O)cc4ccc(N)cc4c3O)c(OC)c2)cc1`, which mutagenic call [1] is on record?
**A.** inactive; negative

**Q.** What about the mutagenic call (Test System: AMES SALMONELLA TYPHIMURIUM, Strain/Indicator: TA98, Metabolic Activation: RAT, LIVER, S-9, AROCLOR 1254, Method: STANDARD PLATE) of the same compound?
**A.** active; positive

**Q.** And the mutagenic call [2]?
**A.** inactive; negative

**Q.** What about the mutagenic call (Test System: AMES SALMONELLA TYPHIMURIUM, Strain/Indicator: TA100, Metabolic Activation: RAT, LIVER, S-9, AROCLOR 1254, Method: STANDARD PLATE) of the same compound?
**A.** inactive; negative

**Q.** And the mutagenic call [3]?
**A.** inactive; negative

**Q.** What about the mutagenic call [4] of the same compound?
**A.** active; positive

**Q.** `CCc1ccc(NO)cc1` was tested. Which mutagenic call (Test System: E. COLI, Strain/Indicator: WP2 UVRA, Metabolic Activation: NONE, Method: FLUCTUATION TEST) did it give?
**A.** active; positive

**Q.** With `N=c1cc2oc3cc(N)ccc3nc-2c2ccccc12` as the compound, how does the mutagenic call [3] read?
**A.** inactive; negative

**Q.** What about the mutagenic call [4] of the same compound?
**A.** active; positive

From PubChem BioAssay AID1259407 (Chemical Carcinogenesis Research Information System (CCRIS), 2018)
